According to the NIST ThermoML archive (doi:10.1021/acs.jced.6b00786):
± gives the expanded uncertainty stated by the source.

How the values were obtained:
[1] = 101 kPa, Liquid, Vibrating tube method
[2] = xn = mol fraction of the nth substance listed; settings: 101 kPa, Liquid, Vibrating tube method, x2 = 0

NC=O [formamide]
[1]
Settings | mass density [kg/m3]
278.15 K | 1146.62 ± 0.2
288.15 K | 1138.17 ± 0.19
298.15 K | 1129.73 ± 0.19
308.15 K | 1121.22 ± 0.18
323.15 K | 1108.46 ± 0.17
333.15 K | 1099.88 ± 0.17

O [water]
[1]
Settings | mass density [kg/m3]
274.15 K | 999.899 ± 0.043
275.15 K | 999.94 ± 0.043
276.15 K | 999.964 ± 0.043
277.15 K | 999.972 ± 0.049
278.15 K | 999.964 ± 0.043
279.15 K | 999.94 ± 0.043
280.15 K | 999.901 ± 0.043
281.15 K | 999.848 ± 0.043
282.15 K | 999.781 ± 0.043
283.15 K | 999.699 ± 0.043
323.15 K | 988.03 ± 0.049
333.15 K | 983.191 ± 0.052

O [water] + NC=O
[2]
Settings | mass density [kg/m3]
274.15 K | 999.899 ± 0.043
275.15 K | 999.94 ± 0.043
276.15 K | 999.964 ± 0.043
277.15 K | 999.972 ± 0.049
278.15 K | 999.964 ± 0.043
279.15 K | 999.94 ± 0.043
280.15 K | 999.901 ± 0.043
281.15 K | 999.848 ± 0.043
282.15 K | 999.781 ± 0.043
283.15 K | 999.699 ± 0.043
323.15 K | 988.03 ± 0.049
333.15 K | 983.191 ± 0.052
